According to patent US10472341B2, “Bicyclic tetrahydrothiazepine derivatives useful for the treatment of neoplastic and/or infectious diseases” (APEIRON BIOLOGICS AG, priority 2015, dated 2019):

Legend:
Type in all cases: cell-based, human
M21 melanoma cells = test: M21 viability (number of living cells) with or without CD8 cells
Procedure: Isolated PBMCs, NK cells or CD8 positive cells were plated in Xvivo medium at 1.5*10^5 cells per in 96 well culture plates in the presence of 0.3*10^4 tumor cells where indicated. Cytokine secretion was determined by ELISA, immune cell activation (using Beckman-Coulter Abs CD25-PC5, CD69-PC7), cell viability and numbers by flow cytometry (Beckman-Coulter FC500 or Gallios) using 7-AAD exclusion as criterion for living cells. CD8-positive immune cells were isolated from PBMCs and were incubated with and without compound example 67, either alone or in co-culture with M21 melanoma cells.

K562 leukemia cells = test: Living tumor cells (K562) in the presence of NK cells
Procedure: (§1) Isolated PBMCs, NK cells or CD8 positive cells were plated in Xvivo medium at 1.5*10^5 cells per in 96 well culture plates in the presence of 0.3*10^4 tumor cells where indicated. Cytokine secretion was determined by ELISA, immune cell activation (using Beckman-Coulter Abs CD25-PC5, CD69-PC7), cell viability and numbers by flow cytometry (Beckman-Coulter FC500 or Gallios) using 7-AAD exclusion as criterion for living cells. NK cells were isolated from PBMCs and were incubated with and without compounds, either alone or in co-culture with K562 leukemia cells.

[1] = test system: NK cells & K562 leukemia cells; test: NK cells alone or in co-culture with K562 leukemia cells: IFN-gamma, TNF-alpha, granzyme, CD25+CD69+
Procedure: as §1, with “living cells. One of the physiological functions of NK cells in anti-tumor immunity is the recognition and destruction of tumor cells that have a low expression of MHC-molecules, thus avoiding recognition by CD8 T cells. Downregulation of MHC molecules is often actively mediated by an infecting virus or occurs during development of malignant neoplasms. The […] leukemia cell line expresses only very low amounts of MHC-molecules and thus is often used as a model system to investigate anti-tumor NK cell reactivity. NK cells” for “living cells. NK cells”

CCCCNC(=O)c1ccc2c(c1)N(Cc1ccc(OC(F)(F)F)cc1)C(=O)[C@@H](N)CS2(=O)=O.Cl [Example 67, (3R)-3-amino-N-butyl-1,1,4-trioxo-5-{[4-(trifluoromethoxy)phenyl]methyl}-2,3,4,5-tetrahydro-1λ^6,5-benzothiazepine-7-carboxamide hydrochloride]
M21 Viability [Number of Living Cells] average (M21 melanoma cells; 0.03 μM, CD8 cells & M21): 13077.00 Number of Living Cells | M21 Viability [Number of Living Cells] average (M21 melanoma cells; 0.1 μM, CD8 cells & M21): 11586.67 Number of Living Cells | M21 Viability [Number of Living Cells] average (M21 melanoma cells; 0.3 μM, CD8 cells & M21): 9525.67 Number of Living Cells | M21 Viability [Number of Living Cells] average (M21 melanoma cells; 1 μM, CD8 cells & M21): 3916.67 Number of Living Cells | M21 Viability [Number of Living Cells] average (M21 melanoma cells; 3 μM, CD8 cells & M21): 3604.00 Number of Living Cells | M21 Viability [Number of Living Cells] average (M21 melanoma cells; 10 μM, CD8 cells & M21): 3448.67 Number of Living Cells | M21 Viability [Number of Living Cells] average (M21 melanoma cells; 10 μM, M21 only (no CD8 cells)): 18139 Number of Living Cells | viable tumor cells (M21 melanoma cells; immune cell cocultures with M21 tumor cells): strong reduction in viable tumor cells | Living tumor cells (K562 leukemia cells; K562 only, 0.3 μM): 22199.00 | Living tumor cells (K562 leukemia cells; K562 only, 3 μM): 20750.33 | Living tumor cells (K562 leukemia cells; K562 only, 30 μM): 22719.33 | Living tumor cells (K562 leukemia cells; NK cells & K562, 0.01 μM): 709.00 | Living tumor cells (K562 leukemia cells; NK cells & K562, 0.03 μM): 779.67 | Living tumor cells (K562 leukemia cells; NK cells & K562, 0.1 μM): 712.67 | Living tumor cells (K562 leukemia cells; NK cells & K562, 0.3 μM): 676.00 | Living tumor cells (K562 leukemia cells; NK cells & K562, 1 μM): 623.33 | Living tumor cells (K562 leukemia cells; NK cells & K562, 3 μM): 620.33 | Living tumor cells (K562 leukemia cells; NK cells & K562, 10 μM): 611.67 | Living tumor cells (K562 leukemia cells; NK cells & K562, 30 μM): 632.00 | IFN-gamma [ng/ml] Avg ([1]; 0.03 μM, NK cells & K562): 7.47 ng/mL | TNF-alpha [ng/ml] avg ([1]; 0.03 μM, NK cells & K562): 0.21 ng/mL | IFN-gamma [ng/ml] Avg ([1]; 0.03 μM, NK cells only): below | TNF-alpha [ng/ml] avg ([1]; 0.03 μM, NK cells only): below | IFN-gamma [ng/ml] Avg ([1]; 0.1 μM, NK cells & K562): 10.14 ng/mL | TNF-alpha [ng/ml] avg ([1]; 0.1 μM, NK cells & K562): 0.26 ng/mL | IFN-gamma [ng/ml] Avg ([1]; 0.1 μM, NK cells only): below | TNF-alpha [ng/ml] avg ([1]; 0.1 μM, NK cells only): below | IFN-gamma [ng/ml] Avg ([1]; 0.3 μM, NK cells & K562): 11.24 ng/mL | TNF-alpha [ng/ml] avg ([1]; 0.3 μM, NK cells & K562): 0.33 ng/mL | IFN-gamma [ng/ml] Avg ([1]; 0.3 μM, NK cells only): below | TNF-alpha [ng/ml] avg ([1]; 0.3 μM, NK cells only): below | IFN-gamma [ng/ml] Avg ([1]; 1 μM, NK cells & K562): 16.40 ng/mL | TNF-alpha [ng/ml] avg ([1]; 1 μM, NK cells & K562): 0.57 ng/mL | IFN-gamma [ng/ml] Avg ([1]; 1 μM, NK cells only): below | TNF-alpha [ng/ml] avg ([1]; 1 μM, NK cells only): below | IFN-gamma [ng/ml] Avg ([1]; 3 μM, NK cells & K562): 17.80 ng/mL | TNF-alpha [ng/ml] avg ([1]; 3 μM, NK cells & K562): 0.58 ng/mL | IFN-gamma [ng/ml] Avg ([1]; 3 μM, NK cells only): below | TNF-alpha [ng/ml] avg ([1]; 3 μM, NK cells only): below | IFN-gamma [ng/ml] Avg ([1]; 10 μM, NK cells & K562): 22.65 ng/mL | TNF-alpha [ng/ml] avg ([1]; 10 μM, NK cells & K562): 0.80 ng/mL | IFN-gamma [ng/ml] Avg ([1]; 10 μM, NK cells only): below | TNF-alpha [ng/ml] avg ([1]; 10 μM, NK cells only): below | IFN-gamma [ng/ml] Avg ([1]; 30 μM, NK cells & K562): 19.98 ng/mL | TNF-alpha [ng/ml] avg ([1]; 30 μM, NK cells & K562): 0.79 ng/mL | IFN-gamma [ng/ml] Avg ([1]; 30 μM, NK cells only): below | TNF-alpha [ng/ml] avg ([1]; 30 μM, NK cells only): below | CD25+CD69+ ([1]; NK cells & K562, 0.03 μM): 6.90 % gated | Granzyme ([1]; NK cells & K562, 0.03 μM): 0.65 ng/mL | CD25+CD69+ ([1]; NK cells & K562, 0.1 μM): 8.44 % gated | Granzyme ([1]; NK cells & K562, 0.1 μM): 0.93 ng/mL | CD25+CD69+ ([1]; NK cells & K562, 0.3 μM): 9.68 % gated | Granzyme ([1]; NK cells & K562, 0.3 μM): 1.01 ng/mL | CD25+CD69+ ([1]; NK cells & K562, 1 μM): 18.80 % gated | Granzyme ([1]; NK cells & K562, 1 μM): 1.47 ng/mL | CD25+CD69+ ([1]; NK cells & K562, 3 μM): 21.66 % gated | Granzyme ([1]; NK cells & K562, 3 μM): 1.62 ng/mL | CD25+CD69+ ([1]; NK cells & K562, 10 μM): 31.98 % gated | Granzyme ([1]; NK cells & K562, 10 μM): 2.52 ng/mL | CD25+CD69+ ([1]; NK cells & K562, 30 μM): 35.89 % gated | Granzyme ([1]; NK cells & K562, 30 μM): 2.43 ng/mL | production of IFN-gamma and TNF-alpha ([1]; NK cells in co-culture with K562 leukemia cells): enhanced production of both cytokines specifically upon tumor cell contact | enhancement of IFN-gamma and TNF-alpha production ([1]; NK cells in the absence of tumor cells): such effect was not detected in the absence of tumor cells | CD25+CD69+ ([1]; NK cells only, 0.03 μM): 0.05 % gated | Granzyme ([1]; NK cells only, 0.03 μM): 0.08 ng/mL | CD25+CD69+ ([1]; NK cells only, 0.1 μM): 0.06 % gated | Granzyme ([1]; NK cells only, 0.1 μM): 0.09 ng/mL | CD25+CD69+ ([1]; NK cells only, 0.3 μM): 0.15 % gated | Granzyme ([1]; NK cells only, 0.3 μM): 0.08 ng/mL | CD25+CD69+ ([1]; NK cells only, 1 μM): 0.39 % gated | Granzyme ([1]; NK cells only, 1 μM): 0.06 ng/mL | CD25+CD69+ ([1]; NK cells only, 3 μM): 0.47 % gated | Granzyme ([1]; NK cells only, 3 μM): 0.12 ng/mL | CD25+CD69+ ([1]; NK cells only, 10 μM): 0.95 % gated | Granzyme ([1]; NK cells only, 10 μM): 0.15 ng/mL | CD25+CD69+ ([1]; NK cells only, 30 μM): 1.24 % gated | Granzyme ([1]; NK cells only, 30 μM): 0.25 ng/mL
